Experiment [1] concerns poly(dA-dT)2 (DNA, polymer) AT. The experiment can be described thus: ITC, one set of sites. The following applies: Na+ (sodium cacodylate, I = 0.05 M); cacodylate pH 5.0, 298 K (293 K in Experimental); n fixed 0.2; polynucleotide as nucleobases; per base. A general note: In ITC the heat of successive injections is recorded.
The test system of experiment [2] is poly(dG-dC)2 (DNA, polymer) GC. The experiment can be described thus: ITC, one set of sites. Particulars: Na+ (sodium cacodylate, I = 0.05 M); cacodylate pH 5.0, 298 K (293 K in Experimental); n fixed 0.2; polynucleotide as nucleobases; per base.
Experiment [3] deals with poly(A)-poly(U) (RNA, polymer) A/U. The experiment can be described thus: UV melting, 260 nm. Particulars: Na+ (sodium cacodylate, I = 0.05 M); cacodylate pH 5.0; r = [NDI]/[polynucleotide] = 0.3; per base.
Experiment [4] concerns poly(dA-dT)2 (DNA, polymer) AT. The experiment can be described thus: UV melting, 260 nm. Particulars: Na+ (sodium cacodylate, I = 0.05 M); cacodylate pH 5.0; r = [NDI]/[polynucleotide] = 0.3; per base.
Experiment [5] relates to poly(A)-poly(U) (RNA, polymer) A/U. The experiment can be described thus: ITC, one set of sites. Particulars: Na+ (sodium cacodylate, I = 0.05 M); cacodylate pH 5.0, 298 K (293 K in Experimental); n fixed 0.2; polynucleotide as nucleobases; per base.
Experiment [6] shares this test system. The experiment can be described thus: fluorescence titration, Scatchard fit. Particulars: Na+ (sodium cacodylate, I = 0.05 M); cacodylate pH 5.0, 25 °C; 1 µM compound; n fixed 0.2; polynucleotide as nucleobases; per base.
In experiment [7] the test system is poly(dA-dT)2 (DNA, polymer) AT. The experiment can be described thus: fluorescence titration, Scatchard fit. Particulars: Na+ (sodium cacodylate, I = 0.05 M); cacodylate pH 5.0, 25 °C; 1 µM compound; n fixed 0.2; polynucleotide as nucleobases; per base.
Experiment [8] has as its system poly(dG-dC)2 (DNA, polymer) GC. The experiment can be described thus: fluorescence titration, Scatchard fit. Particulars: Na+ (sodium cacodylate, I = 0.05 M); cacodylate pH 5.0, 25 °C; 1 µM compound; n fixed 0.2; polynucleotide as nucleobases; per base.

This note sets out measurements from paper PMC7445415 (2020).

For `C[N+](C)(C)CCCN1C(=O)c2cc(NC[C@H](N)C(=O)O)c3c4c(cc(Cl)c(c24)C1=O)C(=O)N(CCC[N+](C)(C)C)C3=O`, the logKs in experiment [1] was 6.3; in experiment [2], 6.7; in experiment [5], 5.9; in experiment [6] it was 6.0; in experiment [7], 6.0; in experiment [8], 7.2. Besides, the “∆Tm” value in experiment [3] is “+17.5 ± 0.5 °C”; in experiment [4], “+21.6 ± 0.5 °C”.
Consider `C[N+](C)(C)CCCN1C(=O)c2cc(NCC[N+](C)(C)C)c3c4c(cc(Cl)c(c24)C1=O)C(=O)N(CCC[N+](C)(C)C)C3=O`, for which the logKs came out at 6.4 in experiment [1]; 6.5 in experiment [2]; 6.7 in experiment [5]; 6.2 in experiment [6]; 6.6 in experiment [7]; 6.4 in experiment [8]. Also, the figures for the “∆Tm” value in experiment [3] and in experiment [4] were “+30.3 ± 0.5 °C” and “+35.4 ± 0.5 °C”, respectively.
`C[N+](C)(C)CCCN1C(=O)c2cc(NCCCC[C@H](N)C(=O)O)c3c4c(cc(Cl)c(c24)C1=O)C(=O)N(CCC[N+](C)(C)C)C3=O`: the logKs in experiment [1] is on record as 6.8; in experiment [2], 6.7; in experiment [5], 6.6; in experiment [6], 6.4; in experiment [7] it was 6.1; in experiment [8], 6.6. In addition, the results for the “∆Tm” value in experiment [3] and in experiment [4] were “+25.1 ± 0.5 °C” and “+28.2 ± 0.5 °C”, respectively.
